Laboratory results published in PubChem BioAssay (NCI).
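Grown in 96-well plates, cells were treated for 48 hours with each compound at five concentrations. Insufficient inhibition: endpoint recorded as highest concentration tested. Definition used: TGI = concentration required for complete inhibition of growth.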

What was measured:
Experiment in all cases: NCI anticancer screen, dose series, 48 h
[1] = test system: ACHN renal
[2] = test system: HOP-62 NSCLC
[3] = test system: SK-OV-3 ovarian
[4] = test system: 786-0 renal
[5] = test system: NCI/ADR-RES ovarian
[6] = test system: UACC-257 melanoma
[7] = test system: OVCAR-3 ovarian
[8] = test system: SNB-19 CNS
[9] = test system: SK-MEL-5 melanoma
[10] = test system: HCT-15 colon
[11] = test system: MALME-3M melanoma
[12] = test system: RPMI-8226 leukemia
[13] = test system: NCI-H522 lung
[14] = test system: MDA-MB-231 breast
[15] = test system: M14 melanoma
[16] = test system: SN12C renal
[17] = test system: SK-MEL-2 melanoma
[18] = test system: PC-3 prostate
[19] = test system: U251 CNS
[20] = test system: K-562 leukemia
[21] = test system: SR leukemia
[22] = test system: NCI-H460 lung
[23] = test system: UACC-62 melanoma
[24] = test system: DU-145 prostate
[25] = test system: SK-MEL-28 melanoma
[26] = test system: COLO 205 colon
[27] = test system: SF-539 CNS
[28] = test system: SW-620 colon
[29] = test system: HCC-2998 colon
[30] = test system: T-47D breast
[31] = test system: SF-268 CNS
[32] = test system: CCRF-CEM leukemia
[33] = test system: MDA-N
[34] = test system: HL-60(TB) leukemia
[35] = test system: SF-295 CNS
[36] = test system: LOX IMVI melanoma
[37] = test system: HS 578T breast
[38] = test system: A498 renal
[39] = test system: TK-10 renal
[40] = test system: KM12 colon
[41] = test system: NCI-H226 lung
[42] = test system: HOP-92 NSCLC
[43] = test system: NCI-H23 lung
[44] = test system: HCT-116 colon
[45] = test system: OVCAR-5 ovarian
[46] = test system: RXF 393 renal
[47] = test system: MOLT-4 leukemia
[48] = test system: A549 NSCLC
[49] = test system: HT29 colon
[50] = test system: IGROV1 ovarian
[51] = test system: OVCAR-4 ovarian
[52] = test system: BT-549 breast
[53] = test system: UO-31 renal
[54] = test system: SNB-75 CNS
[55] = test system: MDA-MB-435
[56] = test system: MCF7 breast
[57] = test system: OVCAR-8 ovarian
[58] = test system: CAKI-1 renal
[59] = test system: EKVX NSCLC

For CS(=O)(=O)c1ccc(NNc2cc(=O)[nH]c(=O)[nH]2)cc1, the TGI [1] was > 100000 nM, the TGI [2] was > 100000 nM and the TGI [3] was > 100000 nM. For the same compound, the TGI [4] was > 100000 nM, the TGI [5] was > 100000 nM and the TGI [6] was > 100000 nM. For the same compound, the TGI [7] was > 100000 nM, the TGI [8] was > 100000 nM and the TGI [9] was > 100000 nM. For the same compound, the TGI [10] was > 100000 nM, the TGI [11] was > 100000 nM and the TGI [12] was > 100000 nM. The TGI [13] was 40200 nM, the TGI [14] was > 100000 nM and the TGI [15] was > 100000 nM. For the same compound, the TGI [16] was > 100000 nM, the TGI [17] was > 100000 nM and the TGI [18] was > 100000 nM. For the same compound, the TGI [19] was > 100000 nM, the TGI [20] was > 100000 nM and the TGI [21] was > 100000 nM. The TGI [22] was > 100000 nM, the TGI [23] was > 100000 nM and the TGI [24] was > 100000 nM. The TGI [25] was > 100000 nM, the TGI [26] was > 100000 nM and the TGI [27] was > 100000 nM. For the same compound, the TGI [28] was > 100000 nM, the TGI [29] was > 100000 nM and the TGI [30] was > 100000 nM. For the same compound, the TGI [31] was > 100000 nM, the TGI [32] was > 100000 nM and the TGI [33] was > 100000 nM. The TGI [34] was > 100000 nM, the TGI [35] was > 100000 nM and the TGI [36] was > 100000 nM. The TGI [37] was > 100000 nM, the TGI [38] was > 100000 nM and the TGI [39] was 9340 nM. For the same compound, the TGI [40] was > 100000 nM, the TGI [41] was > 100000 nM and the TGI [42] was > 100000 nM. For the same compound, the TGI [43] was > 100000 nM, the TGI [44] was > 100000 nM and the TGI [45] was > 100000 nM. The TGI [46] was > 100000 nM, the TGI [47] was > 100000 nM and the TGI [48] was > 100000 nM. The TGI [49] was > 100000 nM, the TGI [50] was > 100000 nM and the TGI [51] was > 100000 nM. For the same compound, the TGI [52] was > 100000 nM, the TGI [53] was > 100000 nM and the TGI [54] was > 100000 nM.
Compound C=C(C)C12OC3(c4ccccc4)OC1C1C4OC4(CO)C(O)C4(O)C(=O)C(C)=CC4C1(O3)C(C)C2OC(=O)/C=C/C=C/c1ccccc1 (stereo not given) has a TGI [1] of 557 nM, a TGI [2] of 1650 nM and a TGI [3] of 4730 nM. The TGI [55] was 742 nM, the TGI [4] was 699 nM and the TGI [5] was 1380 nM. For the same compound, the TGI [6] was 1940 nM, the TGI [7] was 316 nM and the TGI [8] was 5000 nM. It also gave a TGI [9] of 989 nM, a TGI [10] of 1980 nM and a TGI [11] of 1240 nM. It also gave a TGI [12] of 519 nM, a TGI [13] of 1100 nM and a TGI [14] of 264 nM. For the same compound, the TGI [15] was 409 nM, the TGI [16] was 370 nM and the TGI [17] was 1890 nM. For the same compound, the TGI [18] was 620 nM, the TGI [19] was 894 nM and the TGI [20] was 2350 nM. It also gave a TGI [21] of 385 nM, a TGI [22] of 3040 nM and a TGI [23] of 1290 nM. The TGI [56] was 911 nM, the TGI [24] was 1470 nM and the TGI [25] was 1550 nM. The TGI [26] was 41.6 nM, the TGI [27] was 1520 nM and the TGI [29] was 246 nM. It also gave a TGI [30] of 4840 nM, a TGI [31] of 1250 nM and a TGI [32] of 1500 nM. For the same compound, the TGI [33] was 817 nM, the TGI [34] was 107 nM and the TGI [35] was 1090 nM. The TGI [36] was 411 nM, the TGI [38] was 183 nM and the TGI [40] was 862 nM. It also gave a TGI [57] of 1150 nM, a TGI [58] of 1520 nM and a TGI [59] of 1130 nM. The TGI [41] was 1060 nM, the TGI [42] was 836 nM and the TGI [43] was 1400 nM. The TGI [44] was 887 nM, the TGI [45] was 597 nM and the TGI [46] was 1070 nM. The TGI [47] was 2340 nM, the TGI [48] was 2390 nM and the TGI [49] was 220 nM. The TGI [50] was 2400 nM, the TGI [51] was 697 nM and the TGI [52] was 970 nM. The TGI [53] was 576 nM and the TGI [54] was 1150 nM.
CC(=O)O[C@H]1C(=O)[C@@]2(C)[C@H]([C@H](OC(=O)C3CCCCC3)[C@]3(O)C[C@H](OC(=O)[C@H](O)[C@@H](NC(=O)OC(C)(C)C)c4ccccc4)C(C)=C1C3(C)C)[C@]1(OC(C)=O)CO[C@@H]1C[C@@H]2O was tested, and the TGI [1] was > 12500 nM, the TGI [3] was > 12500 nM and the TGI [4] was > 7610 nM. For the same compound, the TGI [5] was > 5940 nM, the TGI [6] was > 12500 nM and the TGI [7] was 19 nM. The TGI [8] was > 12500 nM, the TGI [9] was > 3990 nM and the TGI [10] was > 12500 nM. The TGI [11] was 5070 nM, the TGI [12] was 432 nM and the TGI [13] was 220 nM. For the same compound, the TGI [14] was > 6310 nM, the TGI [15] was 117 nM and the TGI [16] was > 11500 nM. For the same compound, the TGI [17] was 5150 nM, the TGI [18] was > 12500 nM and the TGI [19] was > 12500 nM. For the same compound, the TGI [20] was > 12500 nM, the TGI [21] was > 12500 nM and the TGI [22] was > 5200 nM. The TGI [23] was > 2470 nM, the TGI [56] was 87.9 nM and the TGI [25] was > 9820 nM. For the same compound, the TGI [26] was 144 nM, the TGI [27] was 57.1 nM and the TGI [28] was > 12500 nM. The TGI [29] was 248 nM, the TGI [30] was > 12500 nM and the TGI [31] was > 12500 nM. The TGI [32] was > 8820 nM, the TGI [33] was 17.3 nM and the TGI [34] was 3.65 nM. The TGI [35] was 165 nM, the TGI [36] was > 11900 nM and the TGI [37] was 741 nM. The TGI [39] was > 10100 nM, the TGI [40] was > 12500 nM and the TGI [57] was > 12500 nM. The TGI [58] was > 12500 nM, the TGI [59] was > 12500 nM and the TGI [41] was > 12500 nM. For the same compound, the TGI [42] was 575 nM, the TGI [43] was > 9760 nM and the TGI [44] was > 4970 nM. For the same compound, the TGI [45] was 70.1 nM, the TGI [46] was 2150 nM and the TGI [47] was 337 nM. For the same compound, the TGI [48] was > 12500 nM, the TGI [49] was > 6330 nM and the TGI [50] was > 12500 nM. The TGI [51] was > 12500 nM, the TGI [52] was 460 nM and the TGI [53] was > 12500 nM. For the same compound, the TGI [54] was > 12500 nM.
